This passage reports EC50 and Emax results from patent US20230265151A1, “GIP/GLP1 CO-AGONIST COMPOUNDS” (priority 2020, published 2023).

The term EC50 denotes the concentration needed to bring the measured effect to its halfway point. A word on the Emax: it is the greatest response seen or fitted, relative to the assay's reference.

Read-outs that look alike come from different tables or passages of the source.

Common to all, as to type: cell-based
For assay [1], the target named is T1, hGCGR (Homo sapiens, UniProt P47871).
T1 construct: expressed in transfected cells
T1 sequence (P47871 26-477): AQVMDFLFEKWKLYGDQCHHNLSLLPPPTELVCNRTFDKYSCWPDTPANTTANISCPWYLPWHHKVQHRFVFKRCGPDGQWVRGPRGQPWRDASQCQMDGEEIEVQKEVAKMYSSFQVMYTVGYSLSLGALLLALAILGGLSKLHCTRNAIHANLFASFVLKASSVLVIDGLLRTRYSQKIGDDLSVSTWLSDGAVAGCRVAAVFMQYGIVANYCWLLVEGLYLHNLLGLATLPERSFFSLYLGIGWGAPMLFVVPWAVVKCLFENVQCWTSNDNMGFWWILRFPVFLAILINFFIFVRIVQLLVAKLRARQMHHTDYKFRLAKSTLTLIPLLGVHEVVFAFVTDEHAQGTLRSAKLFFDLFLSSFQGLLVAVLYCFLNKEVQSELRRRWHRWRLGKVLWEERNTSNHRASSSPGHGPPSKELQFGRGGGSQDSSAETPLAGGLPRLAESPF
Put plainly: Functional cAMP formation (HTRF) in HEK-293 clonal cells expressing hGCGR, 0.1% bovine casein, without or with 1.0% human serum albumin. The note with it: geometric mean. The essentials: (§1)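 Readings of the HTRF 665/620 nm ratio, which falls as cAMP rises, were converted to nM cAMP using a standard curve after 30 min peptide exposure at 37° C.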

In assay [2] the target is T2, hGIPR (Homo sapiens, UniProt P48546).
T2 construct: expressed in transfected cells
T2 sequence (P48546 22-466): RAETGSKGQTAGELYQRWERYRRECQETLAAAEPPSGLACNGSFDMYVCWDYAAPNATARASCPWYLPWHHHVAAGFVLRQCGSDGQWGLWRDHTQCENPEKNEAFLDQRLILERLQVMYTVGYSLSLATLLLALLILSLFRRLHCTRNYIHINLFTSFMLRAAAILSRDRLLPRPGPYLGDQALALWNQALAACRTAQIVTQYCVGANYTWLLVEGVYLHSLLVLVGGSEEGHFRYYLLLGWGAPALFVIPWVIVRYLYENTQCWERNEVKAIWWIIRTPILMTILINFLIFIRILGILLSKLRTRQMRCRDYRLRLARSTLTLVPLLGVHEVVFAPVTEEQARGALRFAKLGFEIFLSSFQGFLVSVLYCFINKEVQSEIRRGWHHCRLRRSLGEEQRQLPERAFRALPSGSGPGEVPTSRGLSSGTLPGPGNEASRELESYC
Put plainly: Functional cAMP formation (HTRF) in HEK-293 clonal cells expressing hGIPR, 0.1% bovine casein, without or with 1.0% human serum albumin. The note with it: for EC50: geometric mean. The essentials:
as §1

The target in assay [3] is hGLP-1R (Homo sapiens, UniProt P43220). Put plainly: Functional cAMP formation (HTRF) in HEK-293 clonal cells expressing hGLP-1R, 0.1% bovine casein, without or with 1.0% human serum albumin. Particulars: for EC50: geometric mean; for Emax: percent of maximal response to GLP-1(7-36)NH2. Also noted: expressed in transfected cells. In short, it runs like this:
as §1

The mark [4] stands for this setting: hGCGR EC50, nM (SEM, n), cAMP, incubated at 37° C., 0.1% bovine casein (no human serum albumin).
Where [5] appears, read: HEK293, read-out: hGIPR Emax, % ± SEM, percent of maximal response to GIP(1-42)NH2, 37° C., 0.1% bovine casein, arithmetic mean.
Where [6] appears, read: hGIPR EC50, nM (SEM, n), cAMP, incubated at 37° C., 0.1% bovine casein (no human serum albumin).
Setting [7] is: hGLP-1R EC50, nM (SEM, n), cAMP, incubated at 37° C., 0.1% bovine casein (no human serum albumin).

Sequence of hGLP-1R (P43220 24-463): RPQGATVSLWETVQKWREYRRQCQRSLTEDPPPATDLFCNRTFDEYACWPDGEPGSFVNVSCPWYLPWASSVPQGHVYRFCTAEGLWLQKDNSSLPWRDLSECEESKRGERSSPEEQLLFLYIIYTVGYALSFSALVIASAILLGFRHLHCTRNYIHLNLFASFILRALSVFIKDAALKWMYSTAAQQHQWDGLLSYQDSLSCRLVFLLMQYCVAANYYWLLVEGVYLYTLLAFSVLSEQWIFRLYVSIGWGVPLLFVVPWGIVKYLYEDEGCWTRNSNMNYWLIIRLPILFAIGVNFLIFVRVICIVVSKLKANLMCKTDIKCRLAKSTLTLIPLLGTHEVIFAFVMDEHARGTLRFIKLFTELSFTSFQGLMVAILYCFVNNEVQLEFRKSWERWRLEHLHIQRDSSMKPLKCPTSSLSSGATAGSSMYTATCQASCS

With `CC[C@H](C)[C@H](NC(=O)[C@H](CC(C)C)NC(=O)[C@](C)(Cc1ccc(O)cc1)NC(=O)[C@H](CCCCNC(=O)COCCOCCNC(=O)COCCOCCNC(=O)CC[C@H](NC(=O)CCCc1ccc(C(C)(C)C)cc1)C(=O)O)NC(=O)[C@@H](NC(=O)[C@H](Cc1ccccc1)NC(=O)[C@H](CCC(=O)O)NC(=O)C(C)(C)NC(=O)[C@H](CCC(N)=O)NC(=O)[C@H](C)NC(=O)[C@H](CCCCNC(=O)COCCOCCNC(=O)COCCOCCNC(=O)CC[C@H](NC(=O)CCCc1ccc(C(C)(C)C)cc1)C(=O)O)NC(=O)[C@H](CCCN)NC(=O)[C@H](CC(=O)O)NC(=O)[C@H](CC(C)C)NC(=O)[C@](C)(CC(C)C)NC(=O)[C@@H](NC(=O)[C@H](CO)NC(=O)[C@H](Cc1ccncc1)NC(=O)[C@H](CC(=O)O)NC(=O)[C@H](CO)NC(=O)[C@@H](NC(=O)[C@](C)(Cc1ccccc1F)NC(=O)[C@@H](NC(=O)CNC(=O)[C@H](CCC(=O)O)NC(=O)C(C)(C)NC(=O)[C@@H](N)Cc1ccc(O)cc1)[C@@H](C)O)[C@@H](C)O)[C@@H](C)CC)[C@@H](C)CC)C(=O)N[C@@H](CCC(=O)O)C(=O)NCC(=O)NCC(=O)N1CCC[C@H]1C(=O)N[C@@H](CO)C(=O)N[C@@H](CO)C(=O)NCC(=O)N[C@@H](C)C(=O)N1CCC[C@H]1C(=O)N1CCC[C@H]1C(=O)N1CCC[C@H]1C(=O)N[C@@H](CO)C(N)=O` [Example 132], the EC50 in assay [1] (setting [4]) was > 9950 nM; in assay [2] (setting [6]) it was 0.0208 nM; in assay [3] (setting [7]) it was 0.182 nM. Further, in assay [2] (setting [5]), the Emax came out at 98.3 ± 1.68%.

As for `CC[C@H](C)[C@H](NC(=O)[C@H](CCCN)NC(=O)[C@H](CC(=O)O)NC(=O)[C@H](CC(C)C)NC(=O)[C@](C)(CC(C)C)NC(=O)[C@@H](NC(=O)[C@H](CO)NC(=O)[C@H](Cc1ccncc1)NC(=O)[C@H](CC(=O)O)NC(=O)[C@H](CO)NC(=O)[C@@H](NC(=O)[C@](C)(Cc1ccccc1F)NC(=O)[C@@H](NC(=O)CNC(=O)[C@H](CCC(=O)O)NC(=O)C(C)(C)NC(=O)[C@@H](N)Cc1ccc(O)cc1)[C@@H](C)O)[C@@H](C)O)[C@@H](C)CC)C(=O)N[C@@H](C)C(=O)N[C@@H](CCC(N)=O)C(=O)NC(C)(C)C(=O)N[C@@H](CCCCNC(=O)COCCOCCNC(=O)COCCOCCNC(=O)CC[C@H](NC(=O)CCCCCCCCCOc1ccc(C(=O)O)cc1)C(=O)O)C(=O)N[C@@H](Cc1ccccc1)C(=O)N[C@H](C(=O)N[C@H](CCC(=O)O)C(=O)N[C@@](C)(Cc1ccc(O)cc1)C(=O)N[C@@H](CC(C)C)C(=O)N[C@H](C(=O)N[C@@H](CCCCNC(=O)COCCOCCNC(=O)COCCOCCNC(=O)CC[C@H](NC(=O)CCCCCCCCCOc1ccc(C(=O)O)cc1)C(=O)O)C(=O)NCC(=O)NCC(=O)N1CCC[C@H]1C(=O)N[C@@H](CO)C(=O)N[C@@H](CO)C(=O)NCC(=O)N[C@@H](C)C(=O)N1CCC[C@H]1C(=O)N1CCC[C@H]1C(=O)N1CCC[C@H]1C(=O)N[C@@H](CO)C(N)=O)[C@@H](C)CC)[C@@H](C)CC` [Example 275], the EC50 in assay [1] (hGCGR EC50, nM (SEM, n), 0.1% bovine casein and 1.0% human serum albumin, 37° C.) was > 9950 nM; in assay [1] (hGCGR EC50, nM (SEM, n), cAMP, 37° C., 0.1% bovine casein (no human serum albumin)), > 9950 nM; in assay [2] (hGIPR EC50, nM (SEM, n), cAMP, 37° C., 0.1% bovine casein (no human serum albumin)), 0.0152 nM; in assay [3] (hGLP-1R EC50, nM (SEM, n), 0.1% bovine casein and 1.0% human serum albumin, 37° C.) it was 33.5 nM. Moreover, the Emax in assay [3] (HEK293, read-out: hGLP-1R Emax, % ± SEM, cAMP, 37° C., 0.1% bovine casein, arithmetic mean) was determined as 110%.

`CC[C@H](C)[C@H](NC(=O)[C@H](CC(C)C)NC(=O)[C@](C)(Cc1ccc(O)cc1)NC(=O)[C@H](CCCCNC(=O)COCCOCCNC(=O)COCCOCCNC(=O)CC[C@H](NC(=O)CCCCCCCCCCCCC(=O)O)C(=O)O)NC(=O)[C@@H](NC(=O)[C@H](Cc1ccccc1)NC(=O)[C@H](CCC(=O)O)NC(=O)C(C)(C)NC(=O)[C@H](CCC(N)=O)NC(=O)[C@H](C)NC(=O)[C@H](CCCCNC(=O)COCCOCCNC(=O)COCCOCCNC(=O)CC[C@H](NC(=O)CCCCCCCCCCCCC(=O)O)C(=O)O)NC(=O)[C@H](CCCN)NC(=O)[C@H](CC(=O)O)NC(=O)[C@H](CC(C)C)NC(=O)[C@](C)(CC(C)C)NC(=O)[C@@H](NC(=O)[C@H](CO)NC(=O)[C@@H](NC(=O)[C@H](CC(=O)O)NC(=O)[C@H](CO)NC(=O)[C@@H](NC(=O)[C@](C)(Cc1ccccc1)NC(=O)[C@@H](NC(=O)CNC(=O)[C@H](CCC(=O)O)NC(=O)C(C)(C)NC(=O)[C@@H](N)Cc1ccc(O)cc1)[C@@H](C)O)[C@@H](C)O)C(C)C)[C@@H](C)CC)[C@@H](C)CC)C(=O)N[C@@H](CCC(=O)O)C(=O)NCC(=O)NCC(=O)N1CCC[C@H]1C(=O)N[C@@H](CO)C(=O)N[C@@H](CO)C(=O)NCC(=O)N[C@@H](C)C(=O)N1CCC[C@H]1C(=O)N1CCC[C@H]1C(=O)N1CCC[C@H]1C(=O)N[C@@H](CO)C(N)=O` [Example 181]: the EC50 in assay [1] (setting [4]) was > 9950 nM; in assay [2] (setting [6]) it was 0.154 nM; in assay [3] (setting [7]) it was 0.182 nM. The Emax in assay [2] (setting [5]) was found to be 94.6%.

For `CCCCCCCCCCCC(=O)N[C@@H](CCC(=O)NCCOCCOCC(=O)NCCOCCOCC(=O)NCCCC[C@H](NC(=O)[C@H](CCCN)NC(=O)[C@H](CC(=O)O)NC(=O)[C@H](CC(C)C)NC(=O)[C@](C)(CC(C)C)NC(=O)[C@@H](NC(=O)C(C)(C)NC(=O)[C@H](Cc1ccc(O)cc1)NC(=O)[C@H](CC(=O)O)NC(=O)[C@H](CO)NC(=O)[C@@H](NC(=O)[C@](C)(Cc1ccccc1F)NC(=O)[C@@H](NC(=O)CNC(=O)[C@H](CCC(=O)O)NC(=O)C(C)(C)NC(=O)[C@@H](N)Cc1ccc(O)cc1)[C@@H](C)O)[C@@H](C)O)[C@@H](C)CC)C(=O)N[C@@H](C)C(=O)N[C@@H](CCC(N)=O)C(=O)NC(C)(C)C(=O)N[C@@H](CCCCNC(=O)COCCOCCNC(=O)COCCOCCNC(=O)CC[C@H](NC(=O)CCCCCCCCCCC)C(=O)O)C(=O)N[C@@H](Cc1ccccc1)C(=O)N[C@H](C(=O)N[C@H](CCC(=O)O)C(=O)N[C@@](C)(Cc1ccc(O)cc1)C(=O)N[C@@H](CC(C)C)C(=O)N[C@H](C(=O)N[C@@H](CCC(=O)O)C(=O)NCC(=O)NCC(=O)N1CCC[C@H]1C(=O)N[C@@H](CO)C(=O)N[C@@H](CO)C(=O)NCC(=O)N[C@@H](C)C(=O)N1CCC[C@H]1C(=O)N1CCC[C@H]1C(=O)N1CCC[C@H]1C(=O)N[C@@H](CO)C(N)=O)[C@@H](C)CC)[C@@H](C)CC)C(=O)O` [Example 300], the concentration giving a half-maximal response (EC50) is > 9950 nM in assay [1] (0.1% bovine casein and 1.0% human serum albumin, 37° C., read-out: hGCGR EC50, nM (SEM, n)); > 9950 nM in assay [1] (cAMP, 37° C., 0.1% bovine casein (no human serum albumin), read-out: hGCGR EC50, nM (SEM, n)); 1.25 nM in assay [2] (0.1% bovine casein and 1.0% human serum albumin, 37° C., read-out: hGIPR EC50, nM (SEM, n)); 0.0128 nM in assay [2] (cAMP, 37° C., 0.1% bovine casein (no human serum albumin), read-out: hGIPR EC50, nM (SEM, n)); 0.194 nM in assay [3] (cAMP, 37° C., 0.1% bovine casein (no human serum albumin), read-out: hGLP-1R EC50, nM (SEM, n)). Moreover, the Emax stood at 91.5% in assay [2] (HEK293, 0.1% bovine casein and 1.0% human serum albumin, 37° C., percent of maximal response to GIP(1-42)NH2, read-out: hGIPR Emax, % ± SEM); 109% in assay [3] (HEK293, 0.1% bovine casein and 1.0% human serum albumin, 37° C., read-out: hGLP-1R Emax, % ± SEM).
